As usually defined, the pIC50 is −log10 of the IC50, conventionally taken in molar units.

pIC50: −log10 of the molar value. Read-outs that look alike come from different tables or passages of the source.

Results on 15 compounds are retold here after patent US20240228468A1, “N-(6-((OCTAHYDROCYCLOPENTA[C]PYRROL-5-YI)AMINO)PYRIDAZIN-3-YL)PHENYL)CARBOXAMIDE AND (6- ((OCTAHYDROCYCLOPENTA[C]PYRROL-5-YL)AMINO)PYRIDAZIN-3-YL)BENZAMIDE DERIVATIVES AS MACHR M4 ANTAGONISTS FOR THE TREATMENT OF NEURODEGENERATIVE DISORDERS” (Vanderbilt University, priority 2021, published 2024).

This assay deals with T1, Human M4 (Homo sapiens, UniProt P08173).
T1 construct: expressed in transfected cells; host or cells: CHO-K1 (ATCC), co-transfected with chimeric G protein Gqi5
T1 sequence (P08173 1-479): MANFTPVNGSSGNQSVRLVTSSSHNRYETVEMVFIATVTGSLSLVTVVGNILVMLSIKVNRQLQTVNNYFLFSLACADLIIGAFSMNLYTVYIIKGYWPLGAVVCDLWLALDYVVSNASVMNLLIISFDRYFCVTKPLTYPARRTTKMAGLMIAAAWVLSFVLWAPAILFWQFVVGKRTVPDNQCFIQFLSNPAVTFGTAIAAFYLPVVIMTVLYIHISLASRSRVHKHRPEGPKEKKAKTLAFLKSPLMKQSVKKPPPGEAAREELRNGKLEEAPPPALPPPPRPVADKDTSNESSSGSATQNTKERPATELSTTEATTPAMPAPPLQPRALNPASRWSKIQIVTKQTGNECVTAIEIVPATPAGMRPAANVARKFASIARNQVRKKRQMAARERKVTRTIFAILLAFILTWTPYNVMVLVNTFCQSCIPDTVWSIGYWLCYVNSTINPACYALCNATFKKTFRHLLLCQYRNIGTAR
Briefly: mAChR M4 cell-based functional assay (calcium flux, antagonism of EC80 acetylcholine response). The note with it: for pIC50: concentration-dependent decrease of the response elicited by an EC80 concentration of acetylcholine. In short, it runs like this:
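CHO-K1 cells stably expressing human M4 with chimeric Gqi5, Fluo-4 loaded; calcium flux read on FDSS. Compound (10-point, 1:3 series) added first, then EC20 acetylcholine at 143 s and EC80 at 268 s. IC50 from concentration-dependent decrease of EC80 response, four-parameter logistic fit.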
For orientation: Calcium flux is commonly read through the fluorescence of an indicator in the cells.

The mark [1] stands for this setting: M4/Gqi5/CHO-K1 cells, % ACh maximum at 30 μM, read-out: Human M4 Emin (% ACh maximum at 30 μM).

As for `[2H]C([2H])(C1CCOCC1)N1C[C@H]2C[C@H](Nc3ccc(-c4ccc(F)c(C(=O)NC)c4)nn3)C[C@H]2C1` [Compound A73, 2-fluoro-N-methyl-5-(6-(((3aR,5s,6aS)-2-((tetrahydro-2H-pyran-4-yl)methyl-d2)octahydrocyclopenta[c]pyrrol-5-yl)amino)pyridazin-3-yl)benzamide], the remaining activity at 30 µM under setting [1] was 7%. Besides, the pIC50 (M4/Gqi5/CHO-K1 cells) is 6.51.
Consider `CNC(=O)c1ccccc1-c1ccc(N[C@H]2C[C@@H]3CN(CC4CCOCC4)C[C@@H]3C2)nn1` [Compound A45, N-methyl-2-(6-(((3aR,5s,6aS)-2-((tetrahydro-2H-pyran-4-yl)methyl)octahydrocyclopenta[c]pyrrol-5-yl)amino)pyridazin-3-yl)benzamide], for which the remaining activity at 30 µM under setting [1] was 6%. The pIC50 (M4/Gqi5/CHO-K1 cells) was 6.74.
Consider `O=C(NC1CC1)c1cccc(-c2ccc(N[C@H]3C[C@@H]4CN(CC5CCOCC5)C[C@@H]4C3)nn2)c1` [Compound A28, N-cyclopropyl-3-(6-(((3aR,5s,6aS)-2-((tetrahydro-2H-pyran-4-yl)methyl)octahydrocyclopenta[c]pyrrol-5-yl)amino)pyridazin-3-yl)benzamide], for which the remaining activity at 30 µM under setting [1] stood at 3%. Besides, the pIC50 (M4/Gqi5/CHO-K1 cells) is 7.60.
Take `O=C(c1cc(F)c(F)c(-c2ccc(N[C@H]3C[C@@H]4CN(CC5CCOCC5)C[C@@H]4C3)nn2)c1)N1CC(F)(F)C1` [Compound A20, (3,4-difluoro-5-(6-(((3aR,5s,6aS)-2-((tetrahydro-2H-pyran-4-yl)methyl)octahydrocyclopenta[c]pyrrol-5-yl)amino)pyridazin-3-yl)phenyl)(3,3-difluoroazetidin-1-yl)methanone]: the remaining activity at 30 µM under setting [1] was found to be 4%. For the setting “M4/Gqi5/CHO-K1 cells”, the negative logarithm of the IC50 (pIC50) is 7.00.
For `[2H]C([2H])(C1CCOCC1)N1C[C@H]2C[C@H](Nc3ccc(-c4ccc(NC(C)=O)cc4)nn3)C[C@H]2C1` (single isomer, unassigned) [Compound B1], the “Human M4 Emin (% ACh maximum at 30 μM)” value (M4/Gqi5/CHO-K1 cells, % ACh maximum at 30 μM) worked out at 4%. For the setting “M4/Gqi5/CHO-K1 cells”, the pIC50 is 9.40.
With `[2H]C([2H])(C1CCOCC1)N1C[C@H]2C[C@H](Nc3ccc(-c4cc(F)c(C(=O)N(C)C)c(F)c4F)nn3)C[C@H]2C1` [Compound A67, 2,3,6-Trifluoro-N,N-dimethyl-4-(6-(((3aR,5s,6aS)-2-((tetrahydro-2H-pyran-4-yl)methyl-d2)octahydrocyclopenta[c]pyrrol-5-yl)amino)pyridazin-3-yl)benzamide], where the note is “CHO-K1, read-out: Human M4 Emin (% ACh maximum at 30 μM)”, the remaining activity at 30 µM is 4%. Also, the pIC50 (M4/Gqi5/CHO-K1 cells) was 7.96.
For the compound `[2H]C([2H])(C1CCOCC1)N1C[C@H]2C[C@H](Nc3ccc(-c4ccccc4C(=O)NC)nn3)C[C@H]2C1` [Compound A48, N-methyl-2-(6-(((3aR,5s,6aS)-2-((tetrahydro-2H-pyran-4-yl)methyl-d2)octahydrocyclopenta[c]pyrrol-5-yl)amino)pyridazin-3-yl)benzamide], the remaining activity at 30 µM under setting [1] amounted to 4%. In addition, the negative-log IC50 (pIC50) (M4/Gqi5/CHO-K1 cells) is 7.13.
Consider `CNC(=O)c1ccc(-c2ccc(N[C@H]3C[C@@H]4CN(CC5CCOCC5)C[C@@H]4C3)nn2)cc1` [Compound A63, N-methyl-4-(6-(((3aR,5s,6aS)-2-((tetrahydro-2H-pyran-4-yl)methyl)octahydrocyclopenta[c]pyrrol-5-yl)amino)pyridazin-3-yl)benzamide], for which the remaining activity at 30 µM under setting [1] worked out at 3%. In addition, where the note is “M4/Gqi5/CHO-K1 cells”, the pIC50 is 8.92.
For `[2H]C([2H])([2H])NC(=O)c1ccccc1-c1ccc(N[C@H]2C[C@@H]3CN(CC4CCOCC4)C[C@@H]3C2)nn1` [Compound A60, N-(methyl-d3)-2-(6-(((3aR,5s,6aS)-2-((tetrahydro-2H-pyran-4-yl)methyl)octahydrocyclopenta[c]pyrrol-5-yl)amino)pyridazin-3-yl)benzamide] the same measures were 6% and 6.68.
As for `[2H]C([2H])(C1CC(C)(C)OC(C)(C)C1)N1C[C@H]2C[C@H](Nc3ccc(-c4cccc(C(=O)NC)c4)nn3)C[C@H]2C1` [Compound A76, N-methyl-3-(6-(((3aR,5s,6aS)-2-((2,2,6,6-tetramethyltetrahydro-2H-pyran-4-yl)methyl-d2)octahydrocyclopenta[c]pyrrol-5-yl)amino)pyridazin-3-yl)benzamide], the remaining activity at 30 µM under setting [1] is 4%. Further, the pIC50 (M4/Gqi5/CHO-K1 cells) was 7.00.
As for `[2H]C([2H])(C1CCOCC1)N1C[C@H]2C[C@H](Nc3ccc(-c4ccc(C(=O)NCC)cc4)nn3)C[C@H]2C1` [Compound A52, N-ethyl-4-(6-(((3aR,5s,6aS)-2-((tetrahydro-2H-pyran-4-yl)methyl-d2)octahydrocyclopenta[c]pyrrol-5-yl)amino)pyridazin-3-yl)benzamide], the remaining activity at 30 µM under setting [1] was found to be 5%. The pIC50 (M4/Gqi5/CHO-K1 cells) is 8.11.
For the compound `O=C(Nc1cccc(-c2ccc(N[C@H]3C[C@@H]4CN(CC5CCOCC5)C[C@@H]4C3)nn2)c1)C1CC1` [Compound A30, N-(3-(6-(((3aR,5s,6aS)-2-((tetrahydro-2H-pyran-4-yl)methyl)octahydrocyclopenta[c]pyrrol-5-yl)amino)pyridazin-3-yl)phenyl)cyclopropanecarboxamide], under setting [1], the remaining activity at 30 µM is 3%. Under “M4/Gqi5/CHO-K1 cells”, the negative logarithm of the IC50 (pIC50) is 7.89.
Regarding `[2H]C([2H])(C1CCOCC1)N1C[C@H]2C[C@H](Nc3ccc(-c4ccc(C(=O)NC)c(F)c4)nn3)C[C@H]2C1` [Compound A70, 2-fluoro-N-methyl-4-(6-(((3aR,5s,6aS)-2-((tetrahydro-2H-pyran-4-yl)methyl-d2)octahydrocyclopenta[c]pyrrol-5-yl)amino)pyridazin-3-yl)benzamide], the remaining activity at 30 µM under setting [1] worked out at 4%. Besides, the pIC50 (M4/Gqi5/CHO-K1 cells) is 8.33.
Turning to `[2H]C([2H])(C1CCOCC1)N1C[C@H]2C[C@H](Nc3ccc(-c4cccc(NC(=O)C5CC5)c4)nn3)C[C@H]2C1` [Compound A32, N-(3-(6-(((3aR,5s,6aS)-2-((tetrahydro-2H-pyran-4-yl)methyl-d2)octahydrocyclopenta[c]pyrrol-5-yl)amino)pyridazin-3-yl)phenyl)cyclopropanecarboxamide], the remaining activity at 30 µM under setting [1] came to 3%. Where the note is “M4/Gqi5/CHO-K1 cells”, the pIC50 was 7.80.
For `CC(=O)Nc1ccc(-c2ccc(N[C@H]3C[C@@H]4CN(Cc5ccc6c(c5)OCO6)C[C@@H]4C3)nn2)cc1` [Compound A4, N-(4-(6-(((3aR,5s,6aS)-2-(benzo[d][1,3]dioxol-5-ylmethyl)octahydrocyclopenta[c]pyrrol-5-yl)amino)pyridazin-3-yl)phenyl)acetamide] the same measures were 3% and 9.72.
